This passage reports IC50, EC50 and T/C results from ChEMBL document CHEMBL5137008, “Recent advances of antitumor shikonin/alkannin derivatives: A comprehensive overview focusing on structural classification, synthetic approaches, and mechanisms of action” (Eur J Med Chem, 2022).

One assay concerns U-87 MG. In words: Anticancer activity against human U87 cells assessed as inhibition of cell proliferation incubated for 48 hrs by MTT assay. In kind it is functional, cell-based, U-87MG ATCC. For orientation: Tetrazolium dyes change colour on reduction, which living cells bring about.
The next assay relates to SMMC-7721. In words: Anticancer activity against human SMMC-7721 cells assessed as inhibition of cell proliferation incubated for 48 hrs by MTT assay. Type of assay: functional, cell-based. To be noted: SMMC-7721, 48 h.
The subject of the next assay is SGC-7901. In words: Anticancer activity against human SGC-7901 cells assessed as inhibition of cell proliferation incubated for 48 hrs by MTT assay. Type of assay: functional, cell-based. To be noted: SGC-7901, 48 h.
The test system of a further assay is MGC-803. In words: Anticancer activity against human MGC-803 cells assessed as inhibition of cell proliferation incubated for 48 hrs by MTT assay. In kind it is functional, cell-based. The note with it: MGC-803, 48 h.
For assay [1], the system named is L1210. In words: Anticancer activity against mouse L1210 cells assessed as reduction in cell viability for 72 hrs by MTT assay. Type of assay: functional. The note with it: read-out: ED50 (the source's name).
The test system of the next assay is SNU1. In words: Anticancer activity against human SNU1 cells assessed as reduction in cell viability for 72 hrs by MTT assay. Type of assay: functional, cell-based. To be noted: SNU1, 72 h.
Assay [2] relates to L1210. In words: Anticancer activity against mouse L1210 cells. To be noted: read-out: ED50 (the source's name). Type of assay: functional.
Another assay relates to A549. In words: Anticancer activity against human A549 cells. In kind it is functional. To be noted: read-out: ED50 (the source's name).
The subject of a further assay is Sarcoma-180. In words: Antitumor activity against mouse Sarcoma-180 cells xenografted in ip dosed ICR mouse assessed as tumor growth inhibition rate administered daily for 7 days relative to control. Type of assay: functional. The note with it: time 7 day.

For the compound `COc1cccc2c1C(=O)c1c(O)c3c(c(O)c1C2=O)C[C@@](O)(C(=O)CO)C[C@@H]3O[C@H]1C[C@H](N)[C@H](O)[C@H](C)O1.Cl` [DOXORUBICIN HYDROCHLORIDE], the IC50 in the assay on U-87 MG was found to be 570 nM; in the assay on SMMC-7721, 460 nM; in the assay on SGC-7901 it was 720 nM; in the assay with MGC-803, 480 nM; in the assay on SNU1 it was 2010 nM. Also, the figures for the EC50 in the assay on L1210 [1], in the assay with L1210 [2] and in the assay on A549 were 0.07 µg/mL, 0.016 µg/mL and 1.01 µg/mL, respectively. For the same compound, the T/C with Sarcoma-180 was found to be 315%.

What is called IC50 is the point on the concentration scale where inhibition reaches its midpoint. The term T/C denotes the result in the treated group divided by that in the control group, in per cent.
